Test system: A375 multi-cell spheroids with HUVEC/MSC, viability
Experiment: Anticancer human tumor A375 cell line growth inhibition [GQUAD];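 also: spheroids exposed to compounds for seven days before readout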
Conditions: for IC50: curve of first compound; for viability, T/C: stronger effect = lower value
In short: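 Tumor cells were grown as complex spheroids with HUVEC endothelial cells and mesenchymal stem cells as stroma. G-quadruplex stabilizers were combined with targeted agents over half-log dilutions from near the clinical Cmax, or from 10 microM.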

[1] = second compound 0.0316 µM, first compound 0.0316 µM
[2] = second compound 0.0316 µM, first compound 0.1 µM
[3] = second compound 0.0316 µM, first compound 0.316 µM
[4] = second compound 0.0316 µM, first compound 1 µM
[5] = second compound 0.0316 µM, first compound 3.16 µM
[6] = second compound 0.0316 µM, first compound 10 µM
[7] = second compound 0.1 µM, first compound 0.0316 µM
[8] = second compound 0.1 µM, first compound 0.1 µM
[9] = second compound 0.1 µM, first compound 0.316 µM
[10] = second compound 0.1 µM, first compound 1 µM
[11] = second compound 0.1 µM, first compound 3.16 µM
[12] = second compound 0.1 µM, first compound 10 µM
[13] = second compound 0.316 µM, first compound 0.0316 µM
[14] = second compound 0.316 µM, first compound 0.1 µM
[15] = second compound 0.316 µM, first compound 0.316 µM
[16] = second compound 0.316 µM, first compound 1 µM
[17] = second compound 0.316 µM, first compound 3.16 µM
[18] = second compound 0.316 µM, first compound 10 µM
[19] = second compound 1 µM, first compound 0.0316 µM
[20] = second compound 1 µM, first compound 0.1 µM
[21] = second compound 1 µM, first compound 0.316 µM
[22] = second compound 1 µM, first compound 1 µM
[23] = second compound 1 µM, first compound 3.16 µM
[24] = second compound 1 µM, first compound 10 µM
[25] = second compound 3.16 µM, first compound 0.0316 µM
[26] = second compound 3.16 µM, first compound 0.1 µM
[27] = second compound 3.16 µM, first compound 0.316 µM
[28] = second compound 3.16 µM, first compound 1 µM
[29] = second compound 3.16 µM, first compound 3.16 µM
[30] = second compound 3.16 µM, first compound 10 µM
[31] = second compound 10 µM, first compound 0.0316 µM
[32] = second compound 10 µM, first compound 0.1 µM
[33] = second compound 10 µM, first compound 0.316 µM
[34] = second compound 10 µM, first compound 1 µM
[35] = second compound 10 µM, first compound 3.16 µM
[36] = second compound 10 µM, first compound 10 µM

SMILES: C#Cc1c(F)ccc2cc(O)cc(-c3ncc4c(N5CC6CCC(C5)N6)nc(OCC56CCCN5CC(F)C6)nc4c3F)c12 (stereo unspecified) + CN(C)c1ccc(Nc2c3ccc(NC(=O)CCN4CCCC4)cc3nc3cc(NC(=O)CCN4CCCC4)ccc23)cc1
- IC50 (second compound 0.0316 µM): > 10000 nM
- IC50 (second compound 0.1 µM): > 10000 nM
- IC50 (second compound 0.316 µM): > 10000 nM
- IC50 (second compound 1 µM): > 10000 nM
- IC50 (second compound 3.16 µM): > 10000 nM
- IC50 (second compound 10 µM): > 10000 nM
- viability, T/C [1]: 111%
- viability, T/C [2]: 98.5%
- viability, T/C [3]: 101%
- viability, T/C [4]: 108%
- viability, T/C [5]: 106%
- viability, T/C [6]: 112%
- viability, T/C [7]: 104%
- viability, T/C [8]: 103%
- viability, T/C [9]: 105%
- viability, T/C [10]: 108%
- viability, T/C [11]: 107%
- viability, T/C [12]: 107%
- viability, T/C [13]: 99.5%
- viability, T/C [14]: 98.4%
- viability, T/C [15]: 99.3%
- viability, T/C [16]: 109%
- viability, T/C [17]: 102%
- viability, T/C [18]: 98.6%
- viability, T/C [19]: 106%
- viability, T/C [20]: 98%
- viability, T/C [21]: 99.4%
- viability, T/C [22]: 109%
- viability, T/C [23]: 107%
- viability, T/C [24]: 98.1%
- viability, T/C [25]: 103%
- viability, T/C [26]: 98.7%
- viability, T/C [27]: 104%
- viability, T/C [28]: 97.2%
- viability, T/C [29]: 102%
- viability, T/C [30]: 103%
- viability, T/C [31]: 96.6%
- viability, T/C [32]: 102%
- viability, T/C [33]: 96.2%
- viability, T/C [34]: 96.3%
- viability, T/C [35]: 102%
- viability, T/C [36]: 102%

SMILES: CCCS(=O)(=O)Nc1ccc(F)c(C(=O)c2c[nH]c3ncc(-c4ccc(Cl)cc4)cc23)c1F + CN(C)c1ccc(Nc2c3ccc(NC(=O)CCN4CCCC4)cc3nc3cc(NC(=O)CCN4CCCC4)ccc23)cc1
- IC50 (second compound 0.0316 µM): < 31.6 nM
- IC50 (second compound 0.1 µM): < 31.6 nM
- IC50 (second compound 0.316 µM): < 31.6 nM
- IC50 (second compound 1 µM): < 31.6 nM
- IC50 (second compound 3.16 µM): < 31.6 nM
- IC50 (second compound 10 µM): < 31.6 nM
- viability, T/C [1]: 40.3%
- viability, T/C [2]: 14.1%
- viability, T/C [3]: 8.13%
- viability, T/C [4]: 6.52%
- viability, T/C [5]: 4.92%
- viability, T/C [6]: 5.69%
- viability, T/C [7]: 45%
- viability, T/C [8]: 14.1%
- viability, T/C [9]: 7.72%
- viability, T/C [10]: 6.32%
- viability, T/C [11]: 5.28%
- viability, T/C [12]: 5.54%
- viability, T/C [13]: 39.4%
- viability, T/C [14]: 14.7%
- viability, T/C [15]: 8.27%
- viability, T/C [16]: 6.77%
- viability, T/C [17]: 4.48%
- viability, T/C [18]: 4.46%
- viability, T/C [19]: 34.9%
- viability, T/C [20]: 15%
- viability, T/C [21]: 7.95%
- viability, T/C [22]: 6.06%
- viability, T/C [23]: 4.78%
- viability, T/C [24]: 2.9%
- viability, T/C [25]: 36.5%
- viability, T/C [26]: 14.8%
- viability, T/C [27]: 6.95%
- viability, T/C [28]: 5.84%
- viability, T/C [29]: 4.55%
- viability, T/C [30]: 0.61%
- viability, T/C [31]: 36.9%
- viability, T/C [32]: 12.4%
- viability, T/C [33]: 7%
- viability, T/C [34]: 5.45%
- viability, T/C [35]: 4.34%
- viability, T/C [36]: 0.17%

SMILES: COc1cc(C2c3cc4c(cc3C(OC3OC5COC(C)OC5C(O)C3O)C3COC(=O)C23)OCO4)cc(OC)c1O (stereo unspecified) + CN(C)c1ccc(Nc2c3ccc(NC(=O)CCN4CCCC4)cc3nc3cc(NC(=O)CCN4CCCC4)ccc23)cc1
- IC50 (second compound 0.0316 µM): 1020 nM
- IC50 (second compound 0.1 µM): 966 nM
- IC50 (second compound 0.316 µM): 1200 nM
- IC50 (second compound 1 µM): 1410 nM
- IC50 (second compound 3.16 µM): 1580 nM
- IC50 (second compound 10 µM): 1460 nM
- viability, T/C [1]: 99%
- viability, T/C [2]: 105%
- viability, T/C [3]: 75.3%
- viability, T/C [4]: 52.5%
- viability, T/C [5]: 27.5%
- viability, T/C [6]: 19%
- viability, T/C [7]: 109%
- viability, T/C [8]: 103%
- viability, T/C [9]: 71.6%
- viability, T/C [10]: 50.2%
- viability, T/C [11]: 31.1%
- viability, T/C [12]: 18%
- viability, T/C [13]: 107%
- viability, T/C [14]: 107%
- viability, T/C [15]: 74.2%
- viability, T/C [16]: 55.1%
- viability, T/C [17]: 33%
- viability, T/C [18]: 18.2%
- viability, T/C [19]: 117%
- viability, T/C [20]: 105%
- viability, T/C [21]: 86.3%
- viability, T/C [22]: 58.6%
- viability, T/C [23]: 30.9%
- viability, T/C [24]: 18.1%
- viability, T/C [25]: 103%
- viability, T/C [26]: 103%
- viability, T/C [27]: 84.5%
- viability, T/C [28]: 60.1%
- viability, T/C [29]: 35.2%
- viability, T/C [30]: 18.8%
- viability, T/C [31]: 105%
- viability, T/C [32]: 99.9%
- viability, T/C [33]: 80.6%
- viability, T/C [34]: 56.9%
- viability, T/C [35]: 35.9%
- viability, T/C [36]: 20.1%

— PubChem BioAssay AID2060485 (Molecular Pharmacology Branch, DTP, NCI, 2025)
